The text below walks through data of patent US12509451B2, “Heteroaryl amide inhibitors of CD38” (NAPA THERAPEUTICS LTD., priority 2020, dated 2025).

The target of one assay is T1, CD38 (Mus musculus, UniProt P56528).
T1 construct: aged mice (male C57BL6/J, 22 months old) were fasted for 4 hr; from tissue; host or cells: C57BL6/J mice (aged, DIO obese or LPS-challenged); liver, spleen, plasma
T1 sequence (P56528 1-304): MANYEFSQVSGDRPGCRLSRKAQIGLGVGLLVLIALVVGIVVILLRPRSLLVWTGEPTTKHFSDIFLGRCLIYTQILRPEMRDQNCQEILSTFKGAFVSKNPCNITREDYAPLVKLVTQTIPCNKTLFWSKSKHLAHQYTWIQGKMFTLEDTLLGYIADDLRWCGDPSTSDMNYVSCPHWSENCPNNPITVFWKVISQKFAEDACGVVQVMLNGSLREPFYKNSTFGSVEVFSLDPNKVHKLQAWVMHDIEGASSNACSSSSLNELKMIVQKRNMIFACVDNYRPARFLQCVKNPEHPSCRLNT
The assay can be described thus: In vivo efficacy against CD38 in obese mice, acute oral administration, liver NAD+ metabolites.

Assay [1] deals with T2, human CD38 enzyme in primary human M1 macrophages (Homo sapiens, UniProt P28907).
T2 construct: The assay utilized whole primary human macrophages (from healthy donors); endogenous in cells; host or cells: primary human macrophages from healthy donors, LPS-stimulated (M1)
T2 sequence (P28907 1-300): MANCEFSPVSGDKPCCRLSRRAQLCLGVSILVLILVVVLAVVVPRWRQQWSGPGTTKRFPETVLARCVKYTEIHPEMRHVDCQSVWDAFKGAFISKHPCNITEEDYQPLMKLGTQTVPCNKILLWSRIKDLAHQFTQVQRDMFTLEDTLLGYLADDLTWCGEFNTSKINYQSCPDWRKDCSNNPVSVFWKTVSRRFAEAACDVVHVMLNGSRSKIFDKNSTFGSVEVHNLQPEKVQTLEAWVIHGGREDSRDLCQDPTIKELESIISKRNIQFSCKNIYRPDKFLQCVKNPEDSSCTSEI
As to the kind of experiment: NAD+ hydrolase activity assay in primary human M1 macrophages. It counts as cell-based. The settings on record: primary human M1 macrophages (LPS stimulated). As for the experimental part:
The in vitro potency of Compound 35 against the human CD38 enzyme was determined by a fluorescence-based NAD+ hydrolase activity assay using the NAD+ analog nicotinamide 1,N^6-etheno-adenine dinucleotide (εNAD+) as substrate. The assay utilized: 1) whole primary human CD4+ T cells (from healthy donors) activated with anti-CD3/CD28 antibodies and expressing human CD38; or II) whole primary human macrophages (from healthy donors) stimulated with LPS to polarize in a pro-inflammatory M1 state expressing human CD38. The cells were incubated in the presence of 8 different concentrations of Compound 35 for 10 minutes and the reaction was started adding the substrate εNAD+. The emission of fluorescence was measured at 410-20 nm at 37° C. every minute for 1 hr. The NAD+ hydrolase activity was calculated as the slope of the linear portion of the fluorescence-time curve and used to calculate the IC50 value.
The in vitro potency of Compound 32 against the human CD38 enzyme was determined by a fluorescence-based NAD+ hydrolase activity assay using the NAD+ analog nicotinamide 1,N6-etheno-adenine dinucleotide (εNAD+) as substrate. The assay utilized whole primary human macrophages (from healthy donors) stimulated with LPS to polarize in a pro-inflammatory M1 state expressing human CD38. […] The emission of fluorescence was measured at 410-20 nm at 37° C. every minute for 1 hr. The NAD+ hydrolase activity was calculated as the slope of the linear portion of the fluorescence-time curve and used to calculate the IC50 value.
The in vitro potency of Compound 39 against the human CD38 enzyme was determined by a fluorescence-based NAD+ hydrolase activity assay using the NAD+ analog nicotinamide 1,N6-etheno-adenine dinucleotide (εNAD+) as substrate. […] The emission of fluorescence was measured at 410-20 nm at 37° C. every minute for 1 hr. The NAD+ hydrolase activity was calculated as the slope of the linear portion of the fluorescence-time curve and used to calculate the IC50 value.

Assay [2] concerns the target T3, recombinant mouse CD38 Protein (Mus musculus, UniProt P56528).
T3 construct: purchased R&D System
T3 sequence (P56528 1-304): T1 sequence (P56528 1-304)
The assay can be described thus: Fluorescence-based NAD+ cyclase activity assay with mouse recombinant CD38 protein (Assay 4). It counts as biochemical. The settings on record: read-out: Assay 4 Arithmetic mean IC50. As for the experimental part: This protocol was modified from de Oliveira et al. (2018) supra.
NAD+ cyclase activity of the […] recombinant CD38 protein treated with test compounds was measured using a fluorescence-based assay. Briefly, recombinant mouse CD38 Protein (R&D System) was resuspended in 44 μl/well of Sucrose-Tris Buffer (Sucrose 0.25 M, Tris pH 7.4 40 mM) and plated in a 96-well black plate (CORNING) at a density of 32 ng/well.
Each test compound was received in a powder state and dissolved in DMSO as a 25 mM stock solution. Each test compound was serially diluted in order to generate a dose-response curve. The dilution series of each test compound in DMSO was prepared at 50 times the concentrations to be assayed. Each test compound was diluted to generate a 5-fold dilution series of 8 concentrations from 100 μM to 32 nM in order to assay 8 final concentrations ranging from 2 μM to 0.64 nM. One μl of the 50× concentration compound series was added to each well of the plate containing 125 ng of protein in Sucrose-Tris buffer.
Each plate had the following intra plate controls: 3 wells containing cells treated with vehicle only (DMSO), 3 wells of cells treated with the reference compounds 78c at a final concentration of 500 nM and 2 wells containing only Sucrose-Tris buffer (used as a background value).
The reaction was started adding nicotinamide guanine dinucleotide (NGD+) (Sigma Aldrich) to reach a final concentration of 150 µM. The samples were excited at 337-15 nm and the emission of fluorescence was measured at 442-20 nm at 37° C. every minute for 1 hr in a Clariostar® microplate reader (BMG LABTECH). NAD+ cyclase activity was calculated as the slope of the linear portion of the fluorescence-time curve using the MARS data analysis software (BMG LABTECH). The data were uploaded in the Collaborative Drug Design (CDD) Software and for each compound the IC50 was calculated by the software. Each compound was tested in 3 independent experiments on 3 separate days to establish the reproducibility of the results. For each plate, the z-factor was also calculated as a plate quality using the CDD software.

[3] abbreviates: single 10 mg/kg oral dose, 1 hour post administration.
[4] abbreviates: single 1 mg/kg and 10 mg/kg oral dose.

“And” between values parts separate entries of the source, which are not always exact repeats. Equal entries are not always repeated.

By IC50 is commonly meant the midpoint of a concentration-inhibition curve. In the case of `O=C(Nc1ccnc(C(F)(F)F)c1)c1cc(OC2CC2)cc(-n2ccnc2)n1` [Compound 32, 4-cyclopropoxy-6-(1H-imidazol-1-yl)-N-(2-(trifluoromethyl)pyridin-4-yl)picolinamide], at CD38 (single 3 mg/kg oral dose), the “ADPR levels in liver” value is “decrease”, the “NAD+ levels in liver” value was “increase”, the “NAM levels in liver” value is “decrease” and the “NMN levels in liver” value is given as “increase”. In addition, at CD38 (setting [3]), the “ADPR levels in liver” value was “decrease”, the “NAD+ levels in liver” value was “remarkably increase”, the “NAM levels in liver” value was “decrease” and the “NMN levels in liver” value is listed as “remarkably increase”. For the same compound, the IC50 in assay [1] is 3.5 nM and 3.49 nM.

Take `CN(C)CCOc1cc(C(=O)Nc2ccnc(C(F)(F)F)c2)nc(-n2ccnc2)c1` [Compound 33]: in assay [2], the IC50 is 1 to 50 nM.

For `CC1(Oc2cc(C(=O)Nc3ccnc(C(F)(F)F)c3)nc(-n3ccnc3)c2)COC1` [Compound 34, 6-(1H-imidazol-1-yl)-4-((3-methyloxetan-3-yl)oxy)-N-(2-(trifluoromethyl)pyridin-4-yl)picolinamide], in assay [2], the IC50 lay in the range of 51 to 1000 nM.

`COc1cc(C(=O)Nc2ccnc(C(F)(F)F)c2)nc(-n2ccnc2)c1` [Compound 35, 6-(1H-imidazol-1-yl)-4-methoxy-N-(2-(trifluoromethyl)pyridin-4-yl)picolinamide]: the IC50 in assay [2] is 1 to 50 nM; in assay [1] it was 2.25 nM.

For `COc1cc(C(=O)Nc2ccnc(C(F)(F)F)c2)nc(-n2ccnc2)n1` [Compound 37, 2-(1H-imidazol-1-yl)-6-methoxy-N-(2-(trifluoromethyl)pyridin-4-yl)pyrimidine-4-carboxamide], the concentration for half-maximal inhibition (IC50) in assay [2] fell in the range of 51 to 1000 nM.

Take `CCOc1cc(C(=O)Nc2ccnc(C(F)(F)F)c2)nc(-n2ccnc2)n1` [Compound 38]: in assay [2], the IC50 is 51 to 1000 nM.

Regarding `COCCOc1cc(C(=O)Nc2ccnc(C(F)(F)F)c2)nc(-n2ccnc2)n1` [Compound 39, 2-(1H-imidazol-1-yl)-6-(2-methoxyethoxy)-N-(2-(trifluoromethyl)pyridin-4-yl)pyrimidine-4-carboxamide], the IC50 in assay [2] is 1 to 50 nM. Further, on CD38 (setting [4]), the “ADPR levels in liver” value is listed as “decrease”, the “NAD+ levels in liver” value is on record as “increase”, the “NAM levels in liver” value was “decrease” and the “NMN levels in liver” value is recorded as “increase”. The IC50 in assay [1] was 3.9 nM and 3.92 nM.

`O=C(Nc1ccnc(C(F)(F)F)c1)c1cc(OC2CC2)nc(-n2ccnc2)n1` [Compound 40]: in assay [2], the IC50 is 51 to 1000 nM.

Regarding `O=C(Nc1ccnc(C(F)(F)F)c1)c1cc(C2CC2)nc(-n2ccnc2)n1` [Compound 51, 6-cyclopropyl-2-(1H-imidazol-1-yl)-N-(2-(trifluoromethyl)pyridin-4-yl)pyrimidine-4-carboxamide], in assay [2], the IC50 was in the range of 1 to 50 nM.
